Measured values from US4393047A, “Antibiotic cytophagin and a process for producing the same” (Microbiochemical Research Foundation, priority 1981, dated 1983).

Legend:
[1] = tested on: Bacillus subtilis NRRL B-558; experiment: Minimum growth inhibitory concentration, agar dilution method; type: cell-based; settings: pH 7
Text: (§1) **Determined by agar dilution method using a bouilon medium (pH:7).

[2] = tested on: Candida albicans 3147; experiment: as above; type: cell-based; settings: pH 7
Text: as §1

[3] = tested on: Staphylococcus sp M-XX-0105; experiment: as above; type: cell-based; settings: Staphylococcus sp M-XX-0105, resistant to amikacin, tobramycin and DKB, pH 7
Text: as §1

[4] = tested on: Pseudomonas aeruginosa A 3; experiment: as above; type: cell-based; settings: pH 7
Text: as §1

[5] = tested on: Staphylococcus aureus MS 8800; experiment: as above; type: cell-based; settings: Staphylococcus aureus MS 8800, resistant to penicillin, tetracyclin, streptomycin and erythromycin, pH 7
Text: as §1

[6] = tested on: Sarcina lutea PCI 1001; experiment: as above; type: cell-based; settings: pH 7
Text: as §1

[7] = tested on: Mycobacterium smegmatis ATCC 607; experiment: as above; type: cell-based; settings: pH 7
Text: as §1

[8] = tested on: Bacillus subtilis PCI 219; experiment: as above; type: cell-based; settings: pH 7
Text: as §1

[9] = tested on: Escherichia coli K-12; experiment: as above; type: cell-based; settings: pH 7
Text: as §1

[10] = tested on: Staphylococcus aureus FDA 209P; experiment: as above; type: cell-based; settings: bouillon medium pH 7
Text: as §1

[11] = tested on: Micrococcus lysodeikticus IFO 3333; experiment: as above; type: cell-based; settings: pH 7
Text: as §1

[12] = Solubility in various solvents; type: physicochemical
[13] = tested on: mouse; experiment: Acute toxicity in mouse; type: in vivo; settings: ip., 200 mg/kg in DMSO/water, two groups of 3
Experimental: The acute toxicity of cytophagin was determined by using mouse as test animals.

[14] = tested on: various Gram-positive bacteria; experiment: Activity against the growth of Gram-positive bacteria (Table 1); type: cell-based; settings: qualitative, from Table 1
Text: as §1

In the case of cytophagin, the MIC [1] is reported as 1.56 µg/mL, the MIC [2] is reported as 50 µg/mL and the MIC [3] is reported as 2.5 µg/mL. The MIC [4] was over 100 µg/mL, the MIC [5] was 1.56 µg/mL and the MIC [6] was 0.1 µg/mL. The MIC [7] was over 100 µg/mL, the MIC [8] was 1.56 µg/mL and the MIC [9] was over 100 µg/mL. For the same substance, the MIC [10] was 1.56 µg/mL, the MIC [11] was 0.1 µg/mL and the Solubility ([12]; acetic acid) was “Readily soluble”. For the same substance, the Solubility ([12]; acetone) was “hardly soluble”, the Solubility ([12]; chloroform) was “hardly soluble” and the Solubility ([12]; dimethylsulfoxide) was “Readily soluble”. The Solubility ([12]; ethanol) was “substantially soluble”, the Solubility ([12]; ethyl acetate) was “hardly soluble” and the Solubility ([12]; ethyl ether) was “hardly soluble”. For the same substance, the Solubility ([12]; methanol) was “substantially soluble”, the Solubility ([12]; water) was “hardly soluble” and the “acute toxicity (survival)” value [13] was “All of them (two groups, each consisting of 3 mouse) survived”. The “activity against the growth of various Gram-positive bacteria” value [14] was “strongly active”.
